Reference: article PMC9574863 (Journal of Medicinal Chemistry, 2022)
Where two headings read alike, the source gives them in different places.

What was measured:
[1] = tested on: U937 cells; conditions: read-out: differentiation EC50 U937 (C.L. 95%); U937, CD14/CD11b expression
Source text: The differentiation pathway was monitored by analyzing the expression of CD11b (APC-conjugated BD Bioscience San Jose, CA, USA) or CD14 (APC-conjugated Beckam Coulter CA, USA) via flow cytometry analysis. […] Samples were acquired on an FACSVerse (BD-Biosciences San Jose CA) and dead cells were excluded from the analyses, according to the use of propidium iodide (Sigma-Aldrich, Milan, Italy). Data were processed using Kaluza software version 1.2 (Beckman Coulter Fullerton, CA).

[2] = tested on: U937 cells; conditions: read-out: apoptosis EC50 U937 (C.L. 95%); U937, annexin V, 3 days
[3] = pH 7; cited from earlier work

SMILES | EC50 [1] | EC50 [2] | solubility [3]
Cc1c(-c2ccc(-c3ccccc3F)cc2)nc2ccc(F)cc2c1C(=O)O [Brequinar] | 214 nM | 262 nM | 
CCn1c(CO)nn(-c2cc(O[C@@H](C)C(F)(F)F)c(C(=O)Nc3c(F)cccc3Cl)cc2F)c1=O [BAY2402234] |  |  | < 4 µM
